Experiments:
Format in all cases: physicochemical
[1] = Hygroscopicity evaluation by Dynamic Vapor Sorption (DVS) with XRPD of the solids after DVS; conditions: for solid form after the DVS test: XRPD of solids after DVS
Procedure: Dynamic Vapor Sorption (DVS) was obtained using a Surface Measurement Systems (SMS) DVS Intrinsic. The relative humidity at 25° C. were calibrated against deliquescence point of LiCl, Mg (NO3)2 and KCl.

[2] = Aqueous solubility evaluation of Compound 1 salt forms (Example 5, Table 10)
Procedure: For each of the experiments 1 through 5 in Table 10, about 100 mg of solid form was suspended in 1.5 mL of water, and the vial was rolled at RT for about 24 hours (25 r/min). […] Supernatant of experiment 3 was collected by filtration through a 0.45 μm membrane for HPLC analysis. For each of the experiments 6 through 10 in Table 10, about 40 mg of solid form was dissolved in 0.2 mL (0.9 mL for experiment 7) water and then analyzed by HPLC after 24-hour storage at RT.

[3] = Chemical stability by HPLC-UV at 275 nm and 254 nm (Table 9)
Procedure: High Pressure Liquid Chromatography (HPLC) data were obtained according to Tables 6 or 7, below:
A standard stock was dissolved with diluent in a volumetric flask (e.g., 25 mg in 25 mL). This stock was vortexed and sonicated 10 sec to dissolve, and then diluted 1:10, 1:4, and 1:2 either in volumetric flasks or in HPLC vials to generate a standard curve. […] Where appropriate, a blank was created to accurately replicate the matrix of the analytical sample, and peaks appearing in the blank were identified before integration and quantification using Chemstation software.
The chemical stability of Succinate Form A was determined using HPLC-UV at 275 nm and 254 nm.
The chemical stability of Form G was determined using HPLC-UV at 275 nm and 254 nm.

[4] = Slurry turnover of Compound 2 Form B, Form I and Form G (Example 11, Table 25); conditions: IPAc and MTBE, RT or 50° C., 24 hours
Procedure: To further study the form identity of Form B and Form I, slurry turnover experiments were performed in two solvents with the addition of Form G. Form B was dissolved in IPAc and MTBE respectively to get saturated solutions. Similar mass of Form B, G and I were weighed into a 2-mL vial, upon which the corresponding saturated solution was added to give the slurry, which was stirred at RT or 50° C. After slurry for 24 hours, the solids obtained were analyzed by XRPD.

[5] = Slurry competition between Compound 2 Form G and Form O for stability evaluation (Example 10, Table 24); conditions: IPAc and MTBE, RT and 50° C., 24 hours
Procedure: The slurry competition experiments between the two anhydrates, Form G and Form O, were performed in two solvents, IPAc and MTBE, at RT and 50° C. for stability evaluation. Form O was dissolved in IPAc and MTBE respectively to get saturated solutions. Then, similar masses of Form G and Form O were added into a 2-mL vial, upon which the corresponding saturated solution was added to give the slurry, which was stirred at RT or 50° C. for 24 hours. The solids collected were analyzed by XRPD to confirm the form change.

[6] = Physical stability of Compound 2 Form G over 42 days at varying conditions by XRPD, PLM, DSC/TGA (Table 23)
Procedure: The stability of Compound 2 Form G was tested over 42 days at varying conditions and is reported below in Table 23 and in FIG. 61:
On Day 38, stability samples at 50° C. were exposed to temperatures of approximately 85° C. for 24 hours.

[7] = Critical aw between Compound 2 Form G and Form I, slurry turnover in H2O/IPAc (Example 12, Table 26); conditions: H2O/IPAc, RT and 50° C., 24 hrs; except aw of 0.8 at RT (close to amorphous)
Procedure: To investigate the critical aw between hydrated Form I and the stable anhydrate, Form G, slurry turnover of Form I and Form G was conducted in a co-solvent system (H2O/IPAc) with different aw at RT and 50° C. Similar mass of Form G and Form I were added into a 2-mL vial, followed by adding solvent and stirring at RT or 50° C. for 24 hrs. The solids obtained were analyzed by XRPD to confirm the form change.

[8] = Aqueous solubility estimation of Compound 2 Form G, Form O and Form I at RT (Example 13, Table 27)
Procedure: Aqueous solubility tests at RT were conducted on the two potential anhydrates, Form G and O, and the hydrated Form I. About 3 mg of each form was weighed into a 2-mL vial. […] of water was added and stirred thoroughly at RT with the speed of 800 RPM.

[9] = Slurry conversion of Fumarate Forms A, B and C (Example 6, Table 11); conditions: RT, about 4 days
Procedure: Slurry conversion of Fumarate Forms A, B, and C was conducted in three different solvents.

[10] = 50° C., closed, 42* days (Day 38 excursion to approximately 85° C. for 24 hours)
[11] = ambient conditions and 25° C./60% RH open, 42 days, 254 nm

C[C@H]1CCc2c(ccc(-c3cnn(C4CCNCC4)c3)c2OC2CCC2)N1C(=O)C1CC1.O=C(O)CCC(=O)O [Succinate Form A, (S)-(5-cyclobutoxy-2-methyl-6-(1-(piperidin-4-yl)-1H-pyrazol-4-yl)-3,4-dihydroquinolin-1(2H)-yl)(cyclopropyl)methanone succinate]
behaviour at high humidity (DVS) ([1]; >60% RH, 25° C.): deliquescent | solid form after the DVS test ([1]; succinate): amorphous or jelly solids | solubility in water [2]: > 100 mg FB/mL | chemical degradation by HPLC-UV ([3]; after 42 days at 25° C./60% RH): did not show significant chemical degradation | chemical degradation by HPLC-UV ([3]; after 42 days at temperatures below 40° C.): no significant chemical degradation

C[C@H]1CCc2c(ccc(-c3cnn(C4CCNCC4)c3)c2OC2CCC2)N1C(=O)C1CC1.O=C(O)CCC(=O)O [Form G, (S)-(5-cyclobutoxy-2-methyl-6-(1-(piperidin-4-yl)-1H-pyrazol-4-yl)-3,4-dihydroquinolin-1(2H)-yl)(cyclopropyl)methanone succinate]
form obtained from slurry of a mixture of Form B, G and I (XRPD) [4]: converted to Form G completely | form obtained from slurry competition of Form G and Form O (XRPD) [5]: converted to Form G completely | DSC endotherm Temp ([6]; 25° C./60% RH open, 1 days): 125.46 °C | DSC endotherm ΔH ([6]; 25° C./60% RH open, 1 days): 66.76 J/g | TGA % weight loss before 150° C. ([6]; 25° C./60% RH open, 1 days): 0.4580% | DSC endotherm Temp ([6]; 25° C./60% RH open, 3 days): 125.61 °C | DSC endotherm ΔH ([6]; 25° C./60% RH open, 3 days): 63.86 J/g | TGA % weight loss before 150° C. ([6]; 25° C./60% RH open, 3 days): 0.5433% | DSC endotherm Temp ([6]; 25° C./60% RH open, 7 days): 125.68 °C | DSC endotherm ΔH ([6]; 25° C./60% RH open, 7 days): 64.19 J/g | TGA % weight loss before 150° C. ([6]; 25° C./60% RH open, 7 days): 0.5129% | DSC endotherm Temp ([6]; 25° C./60% RH open, 14 days): 125.64 °C | DSC endotherm ΔH ([6]; 25° C./60% RH open, 14 days): 65.95 J/g | TGA % weight loss before 150° C. ([6]; 25° C./60% RH open, 14 days): 0.5232% | DSC endotherm Temp ([6]; 25° C./60% RH open, 21 days): 125.94 °C | DSC endotherm ΔH ([6]; 25° C./60% RH open, 21 days): 64.03 J/g | TGA % weight loss before 150° C. ([6]; 25° C./60% RH open, 21 days): 0.6097% | DSC endotherm Temp ([6]; 25° C./60% RH open, 42 days): 126.50 °C | DSC endotherm ΔH ([6]; 25° C./60% RH open, 42 days): 57.76 J/g | TGA % weight loss before 150° C. ([6]; 25° C./60% RH open, 42 days): 0.6016% | flowability by visual assessment ([6]; 50° C. sample after being exposed to higher temperatures): slight reduction in flowability | physical stability (XRPD, DSC/TGA, PLM) ([6]; 50° C. samples, exposed on Day 38 to approximately 85° C. for 24 hours): physically stable | DSC endotherm Temp [6, 10]: 121.80 °C | DSC endotherm ΔH [6, 10]: 51.32 J/g | TGA % weight loss before 150° C. [6, 10]: 0.7707% | DSC endotherm Temp ([6]; 50° C., closed, 1 days): 125.53 °C | DSC endotherm ΔH ([6]; 50° C., closed, 1 days): 67.41 J/g | TGA % weight loss before 150° C. ([6]; 50° C., closed, 1 days): 0.4716% | DSC endotherm Temp ([6]; 50° C., closed, 3 days): 125.97 °C | DSC endotherm ΔH ([6]; 50° C., closed, 3 days): 59.90 J/g | TGA % weight loss before 150° C. ([6]; 50° C., closed, 3 days): 0.4670% | DSC endotherm Temp ([6]; 50° C., closed, 7 days): 125.97 °C | DSC endotherm ΔH ([6]; 50° C., closed, 7 days): 65.47 J/g | TGA % weight loss before 150° C. ([6]; 50° C., closed, 7 days): 0.5022% | DSC endotherm Temp ([6]; 50° C., closed, 14 days): 125.16 °C | DSC endotherm ΔH ([6]; 50° C., closed, 14 days): 64.27 J/g | TGA % weight loss before 150° C. ([6]; 50° C., closed, 14 days): 0.5893% | DSC endotherm Temp ([6]; 50° C., closed, 21 days): 125.21 °C | DSC endotherm ΔH ([6]; 50° C., closed, 21 days): 64.69 J/g | TGA % weight loss before 150° C. ([6]; 50° C., closed, 21 days): 0.5702% | DSC endotherm Temp ([6]; Initial, 0 days): 125.51 °C | DSC endotherm ΔH ([6]; Initial, 0 days): 63.56 J/g | TGA % weight loss before 150° C. ([6]; Initial, 0 days): 0.5459% | flow properties by visual assessment ([6]; ambient 42 days, 25° C./75% RH 42 days, 50° C. 21 days): good flow properties | DSC endotherm Temp ([6]; ambient, closed, 1 days): 125.59 °C | DSC endotherm ΔH ([6]; ambient, closed, 1 days): 62.59 J/g | TGA % weight loss before 150° C. ([6]; ambient, closed, 1 days): 0.5454% | DSC endotherm Temp ([6]; ambient, closed, 3 days): 125.61 °C | DSC endotherm ΔH ([6]; ambient, closed, 3 days): 63.01 J/g | TGA % weight loss before 150° C. ([6]; ambient, closed, 3 days): 0.5338% | DSC endotherm Temp ([6]; ambient, closed, 7 days): 125.41 °C | DSC endotherm ΔH ([6]; ambient, closed, 7 days): 63.00 J/g | TGA % weight loss before 150° C. ([6]; ambient, closed, 7 days): 0.5540% | DSC endotherm Temp ([6]; ambient, closed, 14 days): 125.52 °C | DSC endotherm ΔH ([6]; ambient, closed, 14 days): 63.86 J/g | TGA % weight loss before 150° C. ([6]; ambient, closed, 14 days): 0.4133% | DSC endotherm Temp ([6]; ambient, closed, 21 days): 125.38 °C | DSC endotherm ΔH ([6]; ambient, closed, 21 days): 67.51 J/g | TGA % weight loss before 150° C. ([6]; ambient, closed, 21 days): 0.8085% | DSC endotherm Temp ([6]; ambient, closed, 42 days): 125.35 °C | DSC endotherm ΔH ([6]; ambient, closed, 42 days): 66.56 J/g | TGA % weight loss before 150° C. ([6]; ambient, closed, 42 days): 0.4578% | change in physical form by XRPD, PLM or DSC/TGA ([6]; storage conditions below 75% RH, after 42 days): no significant change in physical form | form obtained from slurry of Form G and Form I at different aw (XRPD) [7]: completely converted to Form G | solid form after the DVS test ([1]; succinate): amorphous | water absorbed above 70% RH (DVS) ([1]; above 70% RH): about 25.19 % (wt/wt) | hygroscopicity (DVS) ([1]; absorption up to 80% RH, 25° C., succinate): high hygroscopicity | Observation Initial ([8]; about 3 mg in 50 μL water, initial, succinate): Clear | solubility at 2 h ([8]; thermodynamic from solid, water, stirring 2 hrs at 800 RPM): > 60 mg/mL | claim of the expected Compound 2 content by HPLC-UV ([3]; all stability samples, 275 nm): 95-107 % claim | impurity increase by HPLC-UV [3, 11]: no significant impurity increase | reduction in purity by HPLC-UV [3, 11]: no reduction in purity

C[C@H]1CCc2c(ccc(-c3cnn(C4CCNCC4)c3)c2OC2CCC2)N1C(=O)C1CC1.O=C(O)/C=C/C(=O)O [Fumarate Type A, B and C]
Solid form after slurry conversion ([9]; ACN): Fumarate Form A | Solid form after slurry conversion ([9]; Acetone): Fumarate Form B | Solid form after slurry conversion ([9]; EtOAc): Fumarate Form C

— patent publication US20210261528A1, “SALTS OF (S)-(5-CYCLOBUTOXY-2-METHYL-6-(1-(PIPERIDIN-4-YL)-1H-PYRAZOL-4-YL)-3,4-DIHYDROQUINOLIN-1(2H)-YL)(CYCLOPROPYL)METHANONE AND SOLID FORMS THEREOF” (FORMA Therapeutics, Inc., priority 2018, published 2021)
